# According to patent US20230405000A1, “TABLET FOR USE IN TREATING HUNTINGTON'S DISEASE AND METHOD OF MAKING THE SAME” (PTC THERAPEUTICS, INC., priority 2020, published 2023):
# “Also recorded” adds a separate entry of the source.
# Legend:
# [1] = Phase 1 study: safety and tolerability in healthy subjects; type: in vivo, human
# Method: Phase 1 Dose Escalation Study was initiated to assess the safety and pharmacokinetics of Compound 1 Oral Tablets (5 mg and 50 mg) compared to placebo in healthy subjects.
# (i) To characterize the safety and tolerability of single ascending doses of Compound 1 in healthy subjects; (ii) To characterize the safety and tolerability of Compound 1 administered for 14 or up to 21 days in healthy subjects; (iii) To characterize the pharmacokinetics in plasma and cerebrospinal fluid (CSF) after administration of Compound 1 for 7 days in healthy subjects; (iv) To characterize the food effect on the pharmacokinetics (PK) in plasma of Compound 1 after administration of a single dose of Compound 1 in healthy subjects; and, (v) To characterize the safety and tolerability of Compound 1 administered for up to 28 days in healthy subjects.
# The study was monitored by a Safety Review Committee (SRC). […] Safety and tolerability was assessed by the SRC between each cohort prior to ascending from one dose level to the next higher dose level in Part 1 (single ascending dose [SAD]) and fart 2 (multiple ascending dose [MAD]), and prior to initiating Part 3 (CSF), Part 4 (FE), and Part 5.
# The following parameters were defined as parameters regarding safety and tolerability: […]
# Change from baseline to each scheduled time point up to EOS for vital signs; Change from baseline to each scheduled time point up to EOS for ECG parameters; Change from baseline to each scheduled time point up to EOS for clinical laboratory tests; Changes from baseline in C-SSRS scores (Part 2, Part 3, and Part 5 only); Treatment-emergent adverse events (AEs) up to EOS; Treatment-emergent AEs leading to premature discontinuation of study drug; Treatment-emergent serious adverse events (SAEs) up to FOS; and, Abnormalities in physical examination.
# [2] = tested on: HTT mRNA; assay: Phase 1 study: HTT mRNA in whole blood of healthy volunteers (RT-PCR); type: in vivo, human
# Excerpt: (i) To explore the effect of single dose of Compound 1 administered on huntingtin (HTT) premRNA splicing in the blood of healthy subjects; (i) To explore the effect of Compound 1 administered for 14 or up to 21 days on HTT pre-m RNA splicing and HTT protein levels in the blood of healthy subjects; (ii) To explore the effect of single dose of Compound 1 administered (with food) on HTT pre-mRNA splicing in the blood of healthy subjects; and, (iii) To explore the effect of Compound 1 administered for up to 28 days on HTT premRNA splicing and HTT protein levels in the blood of healthy subjects.
# The single ascending dose (SAD) part of the study was randomized, double-blinded, and placebo controlled in healthy male and female subjects.
# The multiple ascending (MAD) part of the study was randomized, double-blind, and placebo controlled in healthy male and female subjects. Up to five regimens are planned to be tested in up to 5 cohorts of 8 subjects each (Cohort 2.1 to 2.5). Within each cohort, 6 subjects were to receive Compound 1 and 2 subjects were to receive placebo. Subjects in Cohort 2.1 and 2.2 were to be dosed for 14 days, subjects in Cohort 2.3 to 2.5 were to be dosed for up to 21 days.
# The amount of HTT mRNA was then evaluated by RT-PCR 6 hours after administration of Compound 1 on day 14.
# Results from measurement of HTT RNA in the whole blood of human subject administered a placebo or 15 or 30 mg of Compound 1, as described in the Multiple Ascending Dose (MAD) study above are illustrated in FIG. 15. HTT splicing was monitored after the final dose at day 14, calculated as % HTT remaining from baseline (pre-dose day 0).
# [3] = Phase 1 study: Compound 1 levels in CSF compared with plasma; type: in vivo, human
# Excerpt: The concentrations of Compound 1 in plasma and CSF were to be assessed in an open-label design in healthy male and female subjects. A single dose of Compound 1 was to be administered daily for 7 days in 1 cohort of 6 subjects (Cohort 3.1) The dose level of Part 3 was to be determined based upon a review of the safety, tolerability, and PK data of Part 1 and Part 2 of the study. While the MAD dose was to be determined further in development, that dose and schedule was to be applied to this part of the study.
# Eligibility was to be assessed during a screening period of up to 28 days. Subjects were to check into the clinic 1 day before dosing (Day −1). On the morning of Day 1 to Day 7, Compound 1 was to be orally administered after an overnight fast of at least 10 hours each day. Serial sampling of CSF and sampling of plasma for drug concentrations was to be performed on Day 7 The exact timing of the CSF and blood samples was to be determined based on the results of Part 1 and Part 2. Subjects were to be released from the clinic on Day 9 after all required study procedures are completed and if medically appropriate. A follow-up safety phone call was to occur 4 weeks (±1 week) after discharge on Day 9.
# The CSF sampling enabled the evaluation of pharmacokinetics of Compound 1 in the CSF wherein Compound 1 levels in the CSF were compared with Compound 1 levels in plasma. […] The food effect portion enabled the evaluation of pharmacokinetics of Compound 1 in plasma after administration of a single dose of Compound 1 in healthy subjects.
# [4] = Rat toxicology (NOAEL); type: in vivo; conditions: male rats
# Method: The initial dose in the first cohort was ≥ 1/10 of the human equivalent dose (HED) estimated from the NOAEL (no observed adverse effect level) of the (male) rat, which is the most sensitive species, following the FDA guidance on the maximum recommended starting dose (MRSD) and EMA guidelines. The NOAEL of the rat is 6 mg/kg. […] The HED of 0.97 mg/kg was calculated; this scaled in a 70 kg human to 68 mg. Adjusting this dose to 1/10, the dose of the first cohort was 6.8; the actual administered dose will be 5 mg.
# [5] = tested on: human HTT; assay: Transgenic mouse models of Huntington's disease; type: in vivo
# Excerpt: An international application published as WO2020/005873 identified a genus of compounds that can be used in the treatment of HD, methods of making the same and pharmaceutical formulations of the same. […] At present, only symptomatic treatments are available. Thus, to date, there is no small molecule therapy available to slow the progression of HD. Accordingly, there is a need for small molecule disease-modifying therapies for HD (i.e. therapeutic options that can slow disease progression).
# At the selected doses of 10 mg QD and 20 mg QD, the predicted percent full-length HTT mRNA decreases are within the target range of 30 to 50% reduction from baseline. […] Therefore, the observed preclinical HTT mRNA changes are anticipated to result in similar decreases in HTT protein levels in HD patients. Thus, based upon the totality of the clinical and preclinical safety data to date, and the anticipated reduction in HTT mRNA and protein derived from clinical data and pharmacokinetic-pharmacodynamic modeling, the doses of 10 mg and 20 mg are expected to be safe, well tolerated, and beneficial to subjects with HD.
# [6] = Compound 1 in CSF and free plasma of non human primates; type: in vivo
# Method: The two subjects in this cohort received 30 mg daily dose.
structure (smiles),measurement,setting,value
"CC1(C)CC(n2nnc3cc(-c4ccc(-n5nccn5)cc4O)nnc32)CC(C)(C)N1 [Compound 1, 2-[3-(2,2,6,6-tetramethylpiperidin-4-yl)-3H-[1,2,3]triazolo[4,5-c]pyridazin-6-yl]-5-(2H-1,2,3-triazol-2-yl)phenol]",overall incidence of AEs,"[1]; SAD and MAD portions, versus placebo",comparable between subjects who received placebo and those who received Compound 1
same,laboratory abnormalities or ECG findings,"[1]; any dose, SAD and MAD portions",no clinically significant laboratory abnormalities or electrocardiogram (ECG) findings
same,safety and tolerability,"[1]; healthy subjects, single doses 5 mg to 135 mg, multiple doses 15 mg and 30 mg up to 21 days",well-tolerated with no safety-related findings; also recorded: safe and generally well tolerated
same,lowering of HTT mRNA in whole blood,"[2]; MAD cohort, 15 mg or 30 mg for 14 days, 6 hours after dose on day 14",dose-dependent lowering
same,time of treatment until HTT mRNA levels reached steady state,[2]; Multiple Ascending Dose Study,4 to 5 days
same,lowering of HTT mRNA in whole blood,"[2]; SAD cohort, 24 hours after single dose of 5, 15, 45, 90 or 135 mg",dose-dependent lowering
same,Compound 1 levels in the CSF compared with plasma,"[3]; healthy subjects, 30 mg daily dose",equal to or greater than levels observed in plasma; also recorded: at least equivalent or greater than levels observed in the plasma
same,blood brain barrier penetration,[3]; humans,crossed the blood brain barrier
same,efflux,[3]; humans,not subject to efflux
same,observation that set the NOAEL,[4],germ cell exfoliation in epididymis and testes
same,relation of HTT pre-mRNA splicing to protein lowering,[5]; bacterial artificial chromosome transgenic mouse model of HD,strong correlation between levels of HTT pre-mRNA splicing and the degree of protein lowering
same,reduction of human HTT production in vivo,"[5]; transgenic mouse models of Huntington's disease, results not yet published",effective in reducing human HTT production in vivo
same,blood brain barrier penetration,[6],crosses the Blood Brain Barrier
